From article PMC12064818, “A general assay platform to study protein pharmacology using ligand-dependent structural dynamics” (Nature Communications, 2025)
Where two headings read alike, the source gives them in different places.

Experiments:
[1] = target: T1, NLuc (Oplophorus gracilirostris, UniProt Q9GV45, A31E/A60N/A81I/F95D/I117V/K70R/L54V/L99Q/M102K/N193R/P142E/Q151K/Q38R/Q45L/V71I/Y165I); type: biochemical; details: - ATP
T1 construct: His tag (inferred from IMAC purification); made in house; host or cells: E. coli
Experimental: Compounds and controls were added to plates as described in Supplementary Data 8. Nano-Glo luciferase assay reagent (Promega) was prepared fresh according to manufacturer’s protocol, filtered and added at 3 μL per well across assay plates with a BioRaptr2 dispenser. Enzyme was incubated with Nano-Glo reagent for 10 min and NLuc luminescence was read on a ViewLux CCD imager (PerkinElmer), with 1 s exposure with medium gain and 2x binning. Data were normalized to average no enzyme control as 100% enzyme inhibition and average DMSO neutral control. See Supplementary Table 4 for additional details.
Supplementary Table 4. […]
Sequence Param eter Value Description […]
5 Detector ViewLux Read plate lum inescence (Exposure = 1- 10 sec; Gain = Medium -high; Speed = Slow;
Dispensing solution was diluted in 1X PBS, pH 7.4.
NanoLuc luciferase (NLuc) enzym atic lum inescence assay […]
Nano-Glo luciferase assay reagent (Prom ega, Cat # N1120) prepared according to m anufacturer’s recom m endations,
4 com ponents stored at -30 °C until use, and reagent prepared fresh for each assay.
syringe filter prior to dispense.

[2] = target: P. pyralis FLuc (Photinus pyralis, UniProt P08659); test: FLuc enzymatic luminescence assay, P. pyralis FLuc; type: biochemical; details: FLuc enzymatic assay; for IC50: read-out: IC50 or SDR50 (mM) FLuc E
In short: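 Runs with and without 10 µM ATP: compounds were pre-incubated with FLuc (1–10 nM, PBS pH 7.4) at ambient temperature, light-protected, for 30–60 min. Luminescence was imaged 5 min after adding 10 µM D-luciferin (final). Inhibition was scaled between DMSO neutral and no-enzyme controls.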

[3] = target: FLuc-C-NLuc (firefly luciferase) (Photinus pyralis, UniProt P08659, form not given/L550V); test: SDR assay, FLuc-C-NLuc; details: - ATP
[4] = target: FLuc-C-HiBiT (firefly luciferase) (Photinus pyralis, UniProt P08659, form not given/L550V); test: SDR assay, FLuc-C-HiBiT; details: SDR max. response, clade S
Chain of FLuc-C-HiBiT (firefly luciferase) (P08659 2-550 L550V, form open): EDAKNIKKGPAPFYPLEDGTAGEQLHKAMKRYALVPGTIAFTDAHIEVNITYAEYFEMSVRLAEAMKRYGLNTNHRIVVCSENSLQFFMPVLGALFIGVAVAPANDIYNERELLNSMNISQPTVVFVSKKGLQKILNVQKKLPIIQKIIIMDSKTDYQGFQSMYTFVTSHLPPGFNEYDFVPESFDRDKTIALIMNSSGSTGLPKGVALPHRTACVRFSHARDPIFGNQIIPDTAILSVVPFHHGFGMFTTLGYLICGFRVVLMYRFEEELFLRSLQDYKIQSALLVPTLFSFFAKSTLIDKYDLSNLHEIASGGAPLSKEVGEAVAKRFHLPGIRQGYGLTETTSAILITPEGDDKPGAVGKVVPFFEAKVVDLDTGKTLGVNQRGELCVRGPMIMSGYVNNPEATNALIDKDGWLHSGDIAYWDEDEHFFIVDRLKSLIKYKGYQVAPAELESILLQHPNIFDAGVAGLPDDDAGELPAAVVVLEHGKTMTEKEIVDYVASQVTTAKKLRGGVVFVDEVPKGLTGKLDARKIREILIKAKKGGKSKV

Chain of FLuc-C-NLuc (firefly luciferase) (P08659 2-550 L550V, form open): as above
Chain of P. pyralis FLuc (P08659 whole entry): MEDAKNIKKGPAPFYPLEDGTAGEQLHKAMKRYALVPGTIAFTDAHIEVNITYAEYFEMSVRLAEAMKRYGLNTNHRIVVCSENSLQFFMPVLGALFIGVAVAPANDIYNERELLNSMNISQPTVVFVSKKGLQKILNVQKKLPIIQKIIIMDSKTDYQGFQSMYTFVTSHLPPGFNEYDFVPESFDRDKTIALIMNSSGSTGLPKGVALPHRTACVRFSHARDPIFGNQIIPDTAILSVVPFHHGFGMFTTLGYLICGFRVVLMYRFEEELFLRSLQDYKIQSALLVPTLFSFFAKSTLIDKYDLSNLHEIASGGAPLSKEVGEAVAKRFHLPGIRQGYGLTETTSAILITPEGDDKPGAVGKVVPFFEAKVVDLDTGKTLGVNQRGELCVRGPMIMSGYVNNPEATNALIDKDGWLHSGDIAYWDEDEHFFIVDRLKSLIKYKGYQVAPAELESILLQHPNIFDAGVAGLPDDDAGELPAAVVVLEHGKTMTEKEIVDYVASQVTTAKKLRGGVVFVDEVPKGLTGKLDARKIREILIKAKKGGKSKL
T1 sequence (Q9GV45 other isoform, or with tags, fused parts or gaps with the stated changes): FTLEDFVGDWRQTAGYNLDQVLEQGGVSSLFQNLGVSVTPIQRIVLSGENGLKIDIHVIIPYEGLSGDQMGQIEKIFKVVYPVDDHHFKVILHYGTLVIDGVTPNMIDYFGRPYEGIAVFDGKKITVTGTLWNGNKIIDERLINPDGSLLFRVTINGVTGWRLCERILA

| Compound | Efficacy (%) NLuc (- ATP) [1] [%] | Efficacy (%) FLuc E ([2]; Clade S follow-up) [%] | Efficacy (%) FLuc-C-NLuc SDR (-ATP) [3] [%] | % Activity (max response, + ATP) [4] [%] | % Activity (max response, - ATP) [4] [%] | pIC50 or pSDR50 FLuc E ([2]; Clade S follow-up) | IC50 ([2]; Clade S follow-up) [mM] | pIC50 or pSDR50 FLuc E [2] | IC50 [2] [mM] |
| --- | --- | --- | --- | --- | --- | --- | --- | --- | --- |
| COc1ccc(C2Cn3cnc(C(=O)N4CCC(C(=O)NCC5CCCCC5)CC4)c3CO2)cc1 (stereo not drawn) [NCGC00449872-01] | 0.00 | -14.52 | 0.00 | 0.00 | 0.00 |  |  |  |  |
| O=C(NCc1ccccc1F)C1CCN(C(=O)c2ncn3c2COC(c2ccc(Cl)cc2)C3)CC1 (stereo not drawn) [NCGC00449851-01] | 0.00 | -40.26 | 0.00 | 18.50 | 0.00 | 4.91 | 0.0124 |  |  |
| O=C(NC1CCCCCC1)C1CCN(C(=O)c2ncn3c2COC(c2ccc(Cl)cc2)C3)CC1 (stereo not drawn) [NCGC00449846-01] | 0.00 | -16.55 | 0.00 | 13.50 | 0.00 |  |  |  |  |
| O=C(Nc1ccc(F)cc1)C1CCN(C(=O)c2ncn3c2COC(c2ccc(F)cc2)C3)CC1 (stereo not drawn) [NCGC00449939-01] | 0.00 | -56.35 | 0.00 | 72.23 | 0.00 | 5.01 | 0.00988 |  |  |
| O=C(NCc1cccc(F)c1)C1CCN(C(=O)c2ncn3c2COC(c2ccccc2)C3)CC1 (stereo not drawn) [NCGC00449803-01] | 0.00 | -83.73 | 0.00 | 254.28 | 0.00 |  |  | 5.11 | 0.00784 |
| CC(CNC(=O)C1CCN(C(=O)c2ncn3c2COC(c2ccc(F)cc2)C3)CC1)c1ccccc1 (stereo not drawn) [NCGC00449827-01] | 0.00 | -13.06 | 0.00 | 15.49 | 0.00 |  |  |  |  |
| COc1ccc(C2Cn3cnc(C(=O)N4CCC(C(=O)NCCc5ccccc5)CC4)c3CO2)cc1 (stereo not drawn) [NCGC00449871-01] | 0.00 | 0.00 | 0.00 | 0.00 | 0.00 |  |  |  |  |
| COc1ccc(C2Cn3cnc(C(=O)N4CCC(C(=O)NCc5ccccc5)CC4)c3CO2)cc1 (stereo not drawn) [NCGC00449865-01] | 0.00 | 0.00 | 0.00 | 0.00 | 0.00 |  |  |  |  |
| Cc1ccc(C2Cn3cnc(C(=O)N4CCC(C(=O)NCCCc5ccccc5)CC4)c3CO2)cc1 (stereo not drawn) [NCGC00449897-01] | 0.00 | -69.05 | 0.00 | 151.61 | -10.39 | 5.01 | 0.00988 |  |  |
| O=C(NCc1ccc(F)cc1F)C1CCN(C(=O)c2ncn3c2COC(c2ccccc2)C3)CC1 (stereo not drawn) [NCGC00449785-01] | 0.00 | -69.49 | 0.00 | 291.32 | 0.00 |  |  | 5.06 | 0.0088 |
| O=C(NCc1ccc(F)cc1)C1CCN(C(=O)c2ncn3c2COC(c2ccc(Cl)cc2)C3)CC1 (stereo not drawn) [NCGC00449852-01] | 0.00 | -25.63 | 0.00 | 32.50 | 0.00 | 4.86 | 0.0139 |  |  |
| O=C(NC1CCCCCC1)C1CCN(C(=O)c2ncn3c2COC(c2ccc(F)cc2)C3)CC1 (stereo not drawn) [NCGC00449809-01] | 0.00 | -10.94 | 0.00 | 14.91 | 0.00 |  |  |  |  |
